US20190292155A1, “THERAPEUTIC INHIBITORY COMPOUNDS” (LifeSci Pharmaceuticals, Inc., priority 2016, published 2019)
pIC50: −log10 of the molar value.

Target: T1, human complement factor D (Homo sapiens, UniProt P00746)
T1 construct: purchased R&D Systems 1824-SE
Experiment: In vitro enzyme inhibition of human complement factor D (Z-Lys-SBzl/DTNB, A405)
Format: biochemical
Settings: not given
Protocol: The ability of the compounds disclosed herein to inhibit human complement factor D inhibitory activity was quantified according to the 12-step protocol provided below. • 1. Prepare assay buffer: 50 mM Tris/HCl, pH 7.5, 1 M NaCl. • 2. […] Then dilute the serial concentrations of Nafamostat Mesilate 20-fold in assay buffer. • 3. […] 0.5% DMSO was in each well finally. • 4. […] Add 10 μl diluted test compounds duplicated into the 96-well plate. […] 0.5% DMSO was in each well finally. • 6. Dilute 20 mM substrate Z-Lys-SBzl (Bachem, Cat# M-1300) to 200 μM in assay buffer with 200 μM DTNB (Sigma, Catalog# D8130). • 7. […] Add 40 μl diluted Complement Factor D in the 96-well plate. • 8. Positive control well contains Complement Factor D without test compound. Negative control well contains neither Complement Factor D nor test compound. Using assay buffer, bring the total volume of all controls to 50 al. • 9. Pre-incubate the plate for 5 min at room temperature. • 10. Add 50 μl of diluted substrate/DTNB mixture into each well. […] For kinetic reading: Immediately start measuring absorbance (A405 nm) continuously and record data every 30 sec for 60 min. • 12. Data analysis • Inhibition activity of compound was evaluated by IC50. IC50 was calculated according the dose-response curve of compound fitted using GraphPadPrism with “log(inhibitor)-response (variable slope)” equation. • % inhibition was calculated by using following equation:
[formula] • Mean(NC): The average value of the negative control wells' A405 nm values. • Mean(PC): The average value of the positive control wells' A405 nm values.

T1 sequence (P00746 26-253): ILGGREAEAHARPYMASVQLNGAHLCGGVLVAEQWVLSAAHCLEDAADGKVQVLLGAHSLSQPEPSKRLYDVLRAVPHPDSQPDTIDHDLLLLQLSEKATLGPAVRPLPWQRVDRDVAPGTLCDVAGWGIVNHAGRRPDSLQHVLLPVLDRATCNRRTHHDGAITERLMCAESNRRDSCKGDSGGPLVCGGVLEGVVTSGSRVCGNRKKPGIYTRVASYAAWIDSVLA

SMILES	pIC50
CC(C)C(C)N(CC(=O)NCc1cccc(Cl)c1F)C(=O)Cn1nc(C(N)=O)c2ccccc21 (centres unmarked) [Example 54, 1-(2-((2-((3-chloro-2-fluorobenzyl)amino)-2-oxoethyl)(3-methylbutan-2-yl)amino)-2-oxoethyl)-1H-indazole-3-carboxamide]	6.00 to 7.00
CC(CCO)N(CC(=O)NCc1cccc(Cl)c1F)C(=O)Cn1nc(C(N)=O)c2ccccc21 (centres unmarked) [Example 57, 1-(2-((2-((3-chloro-2-fluorobenzyl)amino)-2-oxoethyl)(4-hydroxybutan-2-yl)amino)-2-oxoethyl)-1H-indazole-3-carboxamide]	6.00 to 7.00
CC(CO)N(CC(=O)NCc1cccc(Cl)c1F)C(=O)Cn1nc(C(N)=O)c2ccccc21 (centres unmarked) [Example 58, 1-(2-((2-((3-chloro-2-fluorobenzyl)amino)-2-oxoethyl)(1-hydroxypropan-2-yl)amino)-2-oxoethyl)-1H-indazole-3-carboxamide]	6.00 to 7.00
NC(=O)c1nn(CC(=O)N(CC(=O)NCc2cccc(Cl)c2F)C2CC2)c2ccc(F)cc12 [Example 78, 1-(2-((2-((3-chloro-2-fluorobenzyl)amino)-2-oxoethyl)(cyclopropyl)amino)-2-oxoethyl)-5-fluoro-1H-indazole-3-carboxamide]	6.00 to 7.00

Same assay, conditions: biochemical assay, substrate Z-Lys-SBzl; read-out: CFD IC50

SMILES	pIC50
NC(=O)c1cc(C(=O)O)n(CC(=O)N(CC(=O)NCc2cccc(Cl)c2F)C2CC2)n1 [Example 44, 3-carbamoyl-1-(2-((2-((3-chloro-2-fluorobenzyl)amino)-2-oxoethyl)(cyclopropyl)amino)-2-oxoethyl)-1H-pyrazole-5-carboxylic acid]	5.00 to 6.00
NC(=O)c1cc(C(N)=O)n(CC(=O)N(CC(=O)NCc2cccc(Cl)c2F)C2CC2)n1 [Example 45, 1-(2-((2-((3-chloro-2-fluorobenzyl)amino)-2-oxoethyl)(cyclopropyl)amino)-2-oxoethyl)-1H-pyrazole-3,5-dicarboxamide]	5.00 to 6.00
NC(=O)c1nn(CC(=O)N(CC(=O)NCc2cccc(Cl)c2F)C2CC2)cc1Br [Example 46, 4-bromo-1-(2-((2-((3-chloro-2-fluorobenzyl)amino)-2-oxoethyl)(cyclopropyl)amino)-2-oxoethyl)-1H-pyrazole-3-carboxamide]	5.00 to 6.00
CC(=O)c1nc(CC(=O)N(CC(=O)NCc2cccc(Cl)c2F)C2CC2)n2ccccc12 [Example 48, 2-(1-acetylimidazo[1,5-a]pyridin-3-yl)-N-(2-((3-chloro-2-fluorobenzyl)amino)-2-oxoethyl)-N-cyclopropylacetamide]	6.00 to 7.00
CC(O)c1nn(CC(=O)N(CC(=O)NCc2cccc(Cl)c2F)C2CC2)c2ccccc12 (centres unmarked) [Example 49, N-(2-((3-chloro-2-fluorobenzyl)amino)-2-oxoethyl)-N-cyclopropyl-2-(3-(1-hydroxyethyl)-1H-indazol-1-yl)acetamide]	5.00 to 6.00
NC(=O)n1cc(NC(=O)N(CC(=O)NCc2cccc(Cl)c2F)C2CC2)c2ccccc21 [Example 51, 3-(3-(2-((3-chloro-2-fluorobenzyl)amino)-2-oxoethyl)-3-cyclopropylureido)-1H-indole-1-carboxamide]	6.00 to 7.00
NC(=O)n1cc(NC(=O)N(CC(=O)NCc2cccc(Cl)c2F)C2CCNC2)c2ccccc21 (centres unmarked) [Example 52, 3-(3-(2-((3-chloro-2-fluorobenzyl)amino)-2-oxoethyl)-3-(pyrrolidin-3-yl)ureido)-1H-indole-1-carboxamide]	6.00 to 7.00
COC(=O)C(C)N(CC(=O)NCc1cccc(Cl)c1F)C(=O)Cn1nc(C(N)=O)c2ccccc21 (centres unmarked) [Example 59, methyl 2-(2-(3-carbamoyl-1H-indazol-1-yl)-N-(2-((3-chloro-2-fluorobenzyl)amino)-2-oxoethyl)acetamido)propanoate]	5.00 to 6.00
CC(CCF)N(CC(=O)NCc1cccc(Cl)c1F)C(=O)Cn1nc(C(N)=O)c2ccccc21 (centres unmarked) [Example 60, 1-(2-((2-((3-chloro-2-fluorobenzyl)amino)-2-oxoethyl)(4-fluorobutan-2-yl)amino)-2-oxoethyl)-1H-indazole-3-carboxamide]	6.00 to 7.00
CCC(COC)N(CC(=O)NCc1cccc(Cl)c1F)C(=O)Cn1nc(C(N)=O)c2ccccc21 (centres unmarked) [Example 61, 1-(2-((2-((3-chloro-2-fluorobenzyl)amino)-2-oxoethyl)(1-methoxybutan-2-yl)amino)-2-oxoethyl)-1H-indazole-3-carboxamide]	5.00 to 6.00
CC(C(N)=O)N(CC(=O)NCc1cccc(Cl)c1F)C(=O)Cn1nc(C(N)=O)c2ccccc21 (centres unmarked) [Example 62, 1-(2-((1-amino-1-oxopropan-2-yl)(2-((3-chloro-2-fluorobenzyl)amino)-2-oxoethyl)amino)-2-oxoethyl)-1H-indazole-3-carboxamide]	5.00 to 6.00
CC1CC1N(CC(=O)NCc1cccc(Cl)c1F)C(=O)Cn1nc(C(N)=O)c2ccccc21 (centres unmarked) [Example 63, 1-(2-((2-((3-chloro-2-fluorobenzyl)amino)-2-oxoethyl)(2-methylcyclopropyl)amino)-2-oxoethyl)-1H-indazole-3-carboxamide]	6.00 to 7.00
CC(N(CC(=O)NCc1cccc(Cl)c1F)C(=O)Cn1nc(C(N)=O)c2ccccc21)C(C)(C)C (centres unmarked) [Example 64, 1-(2-((2-((3-chloro-2-fluorobenzyl)amino)-2-oxoethyl)(3,3-dimethylbutan-2-yl)amino)-2-oxoethyl)-1H-indazole-3-carboxamide]	6.00 to 7.00
CC(c1ccccc1)N(CC(=O)NCc1cccc(Cl)c1F)C(=O)Cn1nc(C(N)=O)c2ccccc21 (centres unmarked) [Example 65, 1-(2-((2-((3-chloro-2-fluorobenzyl)amino)-2-oxoethyl)(1-phenylethyl)amino)-2-oxoethyl)-1H-indazole-3-carboxamide]	6.00 to 7.00
CC(CF)N(CC(=O)NCc1cccc(Cl)c1F)C(=O)Cn1nc(C(N)=O)c2ccccc21 (centres unmarked) [Example 66, 1-(2-((2-((3-chloro-2-fluorobenzyl)amino)-2-oxoethyl)(1-fluoropropan-2-yl)amino)-2-oxoethyl)-1H-indazole-3-carboxamide]	6.00 to 7.00
CC(N(CC(=O)NCc1cccc(Cl)c1F)C(=O)Cn1nc(C(N)=O)c2ccccc21)C(F)(F)F (centres unmarked) [Example 67, 1-(2-((2-((3-chloro-2-fluorobenzyl)amino)-2-oxoethyl)(1,1,1-trifluoropropan-2-yl)amino)-2-oxoethyl)-1H-indazole-3-carboxamide]	6.00 to 7.00
COCC(C)N(CC(=O)NCc1cccc(Cl)c1F)C(=O)Cn1nc(C(N)=O)c2ccccc21 (centres unmarked) [Example 68, 1-(2-((2-((3-chloro-2-fluorobenzyl)amino)-2-oxoethyl)(1-methoxypropan-2-yl)amino)-2-oxoethyl)-1H-indazole-3-carboxamide]	6.00 to 7.00
NC(=O)c1nn(CC(=O)N(CC(=O)NCc2cccc(Cl)c2F)C(CO)C2CC2)c2ccccc12 (centres unmarked) [Example 69, 1-(2-((2-((3-chloro-2-fluorobenzyl)amino)-2-oxoethyl)(1-cyclopropyl-2-hydroxyethyl)amino)-2-oxoethyl)-1H-indazole-3-carboxamide]	5.00 to 6.00
CCOC(=O)CC(C)N(CC(=O)NCc1cccc(Cl)c1F)C(=O)Cn1nc(C(N)=O)c2ccccc21 (centres unmarked) [Example 72, ethyl 3-(2-(3-carbamoyl-1H-indazol-1-yl)-N-(2-((3-chloro-2-fluorobenzyl)amino)-2-oxoethyl)acetamido)butanoate]	6.00 to 7.00
NC(=O)c1nn(CC(=O)N(CC(=O)NCc2cccc(Cl)c2F)C(CCO)C2CC2)c2ccccc12 (centres unmarked) [Example 73, 1-(2-((2-((3-chloro-2-fluorobenzyl)amino)-2-oxoethyl)(1-cyclopropyl-3-hydroxypropyl)amino)-2-oxoethyl)-1H-indazole-3-carboxamide]	5.00 to 6.00
CC(CC(=O)O)N(CC(=O)NCc1cccc(Cl)c1F)C(=O)Cn1nc(C(N)=O)c2ccccc21 (centres unmarked) [Example 74, 3-(2-(3-carbamoyl-1H-indazol-1-yl)-N-(2-((3-chloro-2-fluorobenzyl)amino)-2-oxoethyl)acetamido)butanoic acid]	5.00 to 6.00
NC(=O)CC(C1CC1)N(CC(=O)NCc1cccc(Cl)c1F)C(=O)Cn1nc(C(N)=O)c2ccccc21 (centres unmarked) [Example 75, 1-(2-((3-amino-1-cyclopropyl-3-oxopropyl)(2-((3-chloro-2-fluorobenzyl)amino)-2-oxoethyl)amino)-2-oxoethyl)-1H-indazole-3-carboxamide]	5.00 to 6.00
CC(CC(N)=O)N(CC(=O)NCc1cccc(Cl)c1F)C(=O)Cn1nc(C(N)=O)c2ccccc21 (centres unmarked) [Example 76, 1-(2-((4-amino-4-oxobutan-2-yl)(2-((3-chloro-2-fluorobenzyl)amino)-2-oxoethyl)amino)-2-oxoethyl)-1H-indazole-3-carboxamide]	6.00 to 7.00
CCOC(=O)CC(N(CC(=O)NCc1cccc(Cl)c1F)C(=O)Cn1nc(C(N)=O)c2ccccc21)C(F)(F)F (centres unmarked) [Example 77, ethyl 3-(2-(3-carbamoyl-1H-indazol-1-yl)-N-(2-((3-chloro-2-fluorobenzyl)amino)-2-oxoethyl)acetamido)-4,4,4-trifluorobutanoate]	5.00 to 6.00
NC(=O)c1nn(CC(=O)N(CC(=O)NCc2cccc(Cl)c2F)C(CC(=O)O)C(F)(F)F)c2ccccc12 (centres unmarked) [Example 79, 3-(2-(3-carbamoyl-1H-indazol-1-yl)-N-(2-((3-chloro-2-fluorobenzyl)amino)-2-oxoethyl)acetamido)-4,4,4-trifluorobutanoic acid]	5.00 to 6.00
